Measurements: ChEMBL document CHEMBL1148343, “Fragment-based drug discovery” (J Med Chem, 2004)

How the values were obtained:
[1] = Dissociation constant against FK506 binding protein
Acetylcholinesterase [2] = biological target: Acetylcholinesterase (Rattus norvegicus, UniProt P37136); assay: Inhibitory concentration against Acetylcholinesterase in rat brain; type: tissue-based
[3] = biological target: Neuraminidase (Influenza A virus (A/Puerto Rico/8/1934(H1N1)), UniProt P03468)
Description: Inhibition of influenza A viral enzyme neuraminidase

[4] = biological target: Mitogen-activated protein kinase 10 (Homo sapiens, UniProt P53779); assay: Affinity for c-Jun N-terminal kinase 3
Mitogen-activated protein kinase 10, sequence (P53779 whole entry): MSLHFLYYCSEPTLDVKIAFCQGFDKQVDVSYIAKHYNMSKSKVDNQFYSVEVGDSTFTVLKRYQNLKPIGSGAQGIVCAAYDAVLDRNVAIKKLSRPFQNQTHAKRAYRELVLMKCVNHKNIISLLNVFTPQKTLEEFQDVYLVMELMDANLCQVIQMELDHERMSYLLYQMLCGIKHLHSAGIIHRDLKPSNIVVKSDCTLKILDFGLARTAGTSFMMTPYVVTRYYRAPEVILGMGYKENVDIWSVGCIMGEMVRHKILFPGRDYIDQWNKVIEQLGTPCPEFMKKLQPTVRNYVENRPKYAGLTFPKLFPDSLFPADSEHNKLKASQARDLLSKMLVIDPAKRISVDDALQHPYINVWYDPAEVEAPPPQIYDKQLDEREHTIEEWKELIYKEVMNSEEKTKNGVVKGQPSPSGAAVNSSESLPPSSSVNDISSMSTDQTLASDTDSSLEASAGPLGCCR

[5] = Oral bioavailability was determined; Not orally available; type: ADME, organism-based; conditions: in vivo
[6] = Inhibition of Interleukin-2 receptor
[7] = biological target: Matrix metalloproteinase-9 (Homo sapiens, UniProt P14780); assay: Inhibition of gelatinase B, matrix metalloprotease-9 (MMP-9)
Matrix metalloproteinase-9, sequence (P14780 whole entry): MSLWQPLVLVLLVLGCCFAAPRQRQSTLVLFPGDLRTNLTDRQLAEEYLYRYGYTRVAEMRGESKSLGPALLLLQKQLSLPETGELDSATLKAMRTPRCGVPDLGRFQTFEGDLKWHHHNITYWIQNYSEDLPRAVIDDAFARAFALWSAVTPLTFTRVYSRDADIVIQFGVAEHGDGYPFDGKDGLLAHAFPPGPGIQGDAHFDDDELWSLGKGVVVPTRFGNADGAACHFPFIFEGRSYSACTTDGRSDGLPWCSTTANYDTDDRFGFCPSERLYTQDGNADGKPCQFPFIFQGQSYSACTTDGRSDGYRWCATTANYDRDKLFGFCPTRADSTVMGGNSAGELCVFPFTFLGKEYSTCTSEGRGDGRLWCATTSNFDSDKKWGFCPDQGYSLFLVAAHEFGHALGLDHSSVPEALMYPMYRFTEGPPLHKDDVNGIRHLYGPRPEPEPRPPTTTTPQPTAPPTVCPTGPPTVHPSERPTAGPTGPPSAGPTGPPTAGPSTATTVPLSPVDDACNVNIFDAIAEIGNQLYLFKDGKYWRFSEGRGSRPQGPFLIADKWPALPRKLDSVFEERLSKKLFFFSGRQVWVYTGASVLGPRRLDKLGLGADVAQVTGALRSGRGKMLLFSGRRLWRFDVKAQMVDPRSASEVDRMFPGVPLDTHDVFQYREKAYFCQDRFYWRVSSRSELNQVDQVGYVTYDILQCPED

[8] = biological target: Adenylosuccinate synthetase isozyme 2 (Homo sapiens, UniProt P30520)
Adenylosuccinate synthetase isozyme 2, sequence (P30520 whole entry): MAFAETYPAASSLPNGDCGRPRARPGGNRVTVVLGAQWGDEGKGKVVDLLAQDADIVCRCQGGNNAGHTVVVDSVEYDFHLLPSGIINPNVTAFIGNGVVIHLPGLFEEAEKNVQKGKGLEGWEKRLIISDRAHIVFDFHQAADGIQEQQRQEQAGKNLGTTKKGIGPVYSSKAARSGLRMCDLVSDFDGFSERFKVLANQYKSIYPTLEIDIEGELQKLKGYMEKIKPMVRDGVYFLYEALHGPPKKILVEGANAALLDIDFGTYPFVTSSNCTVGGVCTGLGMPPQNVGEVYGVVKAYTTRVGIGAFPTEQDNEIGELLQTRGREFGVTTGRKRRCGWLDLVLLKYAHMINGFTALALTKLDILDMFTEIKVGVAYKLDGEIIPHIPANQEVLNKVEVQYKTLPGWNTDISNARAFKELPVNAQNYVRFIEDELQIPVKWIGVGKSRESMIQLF
Description: Inhibitory concentration against Adenylosuccinate synthetase

[9] = Dissociation constant against Erythromycin-Resistance Methylase AM
Adenosine deaminase = Adenosine deaminase (Homo sapiens, UniProt P00813)
Description: Binding affinity towards adenosine deaminase

[10] = biological target: T1, Glycogen phosphorylase, liver form (Mus musculus, UniProt Q9ET01)
T1 sequence (Q9ET01 whole entry): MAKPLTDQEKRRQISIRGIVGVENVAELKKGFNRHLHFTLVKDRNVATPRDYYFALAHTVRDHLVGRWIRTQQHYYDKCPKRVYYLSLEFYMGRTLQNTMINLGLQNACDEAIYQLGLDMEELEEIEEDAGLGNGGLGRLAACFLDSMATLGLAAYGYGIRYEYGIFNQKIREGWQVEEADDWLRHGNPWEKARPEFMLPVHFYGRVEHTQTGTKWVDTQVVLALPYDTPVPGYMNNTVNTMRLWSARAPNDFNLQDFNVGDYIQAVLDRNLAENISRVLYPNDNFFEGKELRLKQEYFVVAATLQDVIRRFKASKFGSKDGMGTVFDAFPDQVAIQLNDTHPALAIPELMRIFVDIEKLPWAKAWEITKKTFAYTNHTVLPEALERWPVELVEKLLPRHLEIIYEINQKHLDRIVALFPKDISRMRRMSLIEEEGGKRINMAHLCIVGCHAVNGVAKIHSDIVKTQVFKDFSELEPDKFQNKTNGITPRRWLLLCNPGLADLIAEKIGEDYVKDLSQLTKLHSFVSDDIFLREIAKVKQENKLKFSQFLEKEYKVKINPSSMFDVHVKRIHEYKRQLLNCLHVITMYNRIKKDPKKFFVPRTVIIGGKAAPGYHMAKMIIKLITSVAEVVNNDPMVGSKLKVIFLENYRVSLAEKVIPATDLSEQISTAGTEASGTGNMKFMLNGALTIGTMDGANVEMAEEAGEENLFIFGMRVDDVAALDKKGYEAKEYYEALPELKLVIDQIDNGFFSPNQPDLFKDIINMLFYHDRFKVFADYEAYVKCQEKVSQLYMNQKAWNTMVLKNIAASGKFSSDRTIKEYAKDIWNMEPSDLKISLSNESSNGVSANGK
Description: Inhibitory concentration against glycogen phosphorylase

[11] = biological target: Urokinase-type plasminogen activator (Homo sapiens, UniProt P00749)
Description: Binding affinity towards Urokinase-type plasminogen activator

Bcl-2-like protein 1 = Bcl-2-like protein 1 (Homo sapiens, UniProt Q07817); assay: Inhibitory concentration against B-Cell Lymphoma xL (Bcl-xL) Bak-peptide binding region; type: functional
Bcl-2-like protein 1, sequence (Q07817 whole entry): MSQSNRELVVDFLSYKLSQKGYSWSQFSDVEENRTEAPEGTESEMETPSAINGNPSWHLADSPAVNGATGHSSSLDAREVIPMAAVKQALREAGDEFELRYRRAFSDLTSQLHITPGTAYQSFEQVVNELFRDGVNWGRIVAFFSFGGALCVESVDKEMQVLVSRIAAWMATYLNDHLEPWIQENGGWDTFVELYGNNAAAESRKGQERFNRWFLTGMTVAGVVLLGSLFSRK

Acetylcholinesterase [12] = biological target: Acetylcholinesterase (Mus musculus, UniProt P21836)
Description: Dissociation constant towards Acetylcholinesterase in mouse

Thymidylate synthase [13] = biological target: Thymidylate synthase (Lactobacillus casei, UniProt P00469)
Thymidylate synthase (Lactobacillus casei, UniProt P00469), sequence (P00469 whole entry): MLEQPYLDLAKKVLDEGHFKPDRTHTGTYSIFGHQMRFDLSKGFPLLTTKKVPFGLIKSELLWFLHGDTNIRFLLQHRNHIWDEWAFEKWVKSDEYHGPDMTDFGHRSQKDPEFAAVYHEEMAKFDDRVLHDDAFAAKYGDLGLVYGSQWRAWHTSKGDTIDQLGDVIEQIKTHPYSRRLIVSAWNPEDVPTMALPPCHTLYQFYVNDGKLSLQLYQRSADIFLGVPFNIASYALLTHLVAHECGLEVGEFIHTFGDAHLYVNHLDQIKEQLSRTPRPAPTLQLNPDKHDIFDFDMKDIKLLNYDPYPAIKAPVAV

Nucleic Acid = assay: Dissociation constant towards Mutant U1061A RNA; type: nucleic-acid assay
Interstitial collagenase = Interstitial collagenase (Homo sapiens, UniProt P03956)
Interstitial collagenase, sequence (P03956 whole entry): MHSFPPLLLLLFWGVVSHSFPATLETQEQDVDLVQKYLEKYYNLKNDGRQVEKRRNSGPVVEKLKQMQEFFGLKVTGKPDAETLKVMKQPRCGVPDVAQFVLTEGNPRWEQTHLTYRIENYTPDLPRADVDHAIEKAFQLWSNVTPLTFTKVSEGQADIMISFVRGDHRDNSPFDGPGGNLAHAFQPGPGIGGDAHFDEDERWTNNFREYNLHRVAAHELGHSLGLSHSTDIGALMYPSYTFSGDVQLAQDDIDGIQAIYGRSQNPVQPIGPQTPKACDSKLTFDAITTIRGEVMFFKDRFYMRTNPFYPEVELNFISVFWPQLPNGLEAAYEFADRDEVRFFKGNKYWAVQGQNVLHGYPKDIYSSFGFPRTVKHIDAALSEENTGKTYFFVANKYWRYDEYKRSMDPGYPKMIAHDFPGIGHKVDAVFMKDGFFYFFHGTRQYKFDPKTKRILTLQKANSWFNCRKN
Description: Inhibition of Matrix Metalloprotease-1 (MMP-1)

Stromelysin-1 [14] = biological target: T2, Stromelysin-1 (Homo sapiens, UniProt P08254); assay: Dissociation constant for Matrix Metalloprotease-3 (MMP-3)
T2 sequence (P08254 whole entry): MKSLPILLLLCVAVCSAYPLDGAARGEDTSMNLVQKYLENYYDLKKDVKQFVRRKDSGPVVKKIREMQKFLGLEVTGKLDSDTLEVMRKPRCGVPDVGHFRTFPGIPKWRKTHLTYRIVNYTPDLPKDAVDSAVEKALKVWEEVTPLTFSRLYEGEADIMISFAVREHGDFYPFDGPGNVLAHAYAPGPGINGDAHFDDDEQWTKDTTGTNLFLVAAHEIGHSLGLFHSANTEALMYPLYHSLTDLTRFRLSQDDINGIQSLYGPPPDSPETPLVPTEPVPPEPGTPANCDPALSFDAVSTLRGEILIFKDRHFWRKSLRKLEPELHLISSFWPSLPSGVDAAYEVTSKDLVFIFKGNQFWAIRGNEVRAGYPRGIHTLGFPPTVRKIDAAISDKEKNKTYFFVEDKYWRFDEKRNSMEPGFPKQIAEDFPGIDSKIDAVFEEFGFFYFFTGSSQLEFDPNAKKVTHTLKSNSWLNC

[15] = biological target: Intercellular adhesion molecule (ICAM-1), Integrin alpha-L/beta-2 (Homo sapiens, UniProt P05107+P20701)
Description: Inhibition of Leukocyte function associated antigen 1 (LFA-1)

[16] = Half life was determined; type: ADME; conditions: rat
[17] = biological target: Proto-oncogene tyrosine-protein kinase Src (Homo sapiens, UniProt P12931); assay: Inhibition of c-Src tyrosine kinase
Proto-oncogene tyrosine-protein kinase Src, sequence (P12931 2-536 limits assumed): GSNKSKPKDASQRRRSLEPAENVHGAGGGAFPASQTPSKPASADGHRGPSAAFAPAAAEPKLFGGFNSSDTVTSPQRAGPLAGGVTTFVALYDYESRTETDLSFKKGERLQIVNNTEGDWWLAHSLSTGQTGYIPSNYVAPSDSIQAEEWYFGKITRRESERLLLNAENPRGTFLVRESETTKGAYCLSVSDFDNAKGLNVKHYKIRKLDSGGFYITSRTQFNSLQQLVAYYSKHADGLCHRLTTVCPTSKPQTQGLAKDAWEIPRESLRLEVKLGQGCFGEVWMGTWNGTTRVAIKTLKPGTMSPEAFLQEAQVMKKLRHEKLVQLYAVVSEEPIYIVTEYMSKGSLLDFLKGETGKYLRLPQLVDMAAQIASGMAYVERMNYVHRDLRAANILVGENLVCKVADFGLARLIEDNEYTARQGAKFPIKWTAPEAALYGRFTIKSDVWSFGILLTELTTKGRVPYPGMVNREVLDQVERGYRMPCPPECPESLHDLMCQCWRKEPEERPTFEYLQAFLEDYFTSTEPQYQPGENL

Collagenase 3 = Collagenase 3 (Homo sapiens, UniProt P45452); assay: Inhibition of Matrix Metalloprotease-13 (MMP-13)
Human papillomavirus [18] = assay: Dissociation constant against DNA-binding domain of the human papillomavirus protein E2; type: functional
[19] = Binding affinity against Erythromycin-Resistance Methylase AM
[20] = biological target: Cyclin-dependent kinase 2 (Homo sapiens, UniProt P24941); assay: Inhibition of Cyclin-Dependent Kinase 2
Human papillomavirus [21] = assay: Inhibitory concentration against DNA-binding domain of the human papillomavirus protein E2; type: functional
Caspase-3 = Caspase-3 (Homo sapiens, UniProt P42574); assay: Binding affinity against Caspase-3
Thymidylate synthase [22] = biological target: Thymidylate synthase (Homo sapiens, UniProt P04818); assay: Tested for binding affinity towards thymidylate synthase
[23] = Oral bioavailability; type: ADME, organism-based; conditions: eutheria, in vivo
Stromelysin-1 [24] = biological target: T2, Stromelysin-1
Description: Inhibition of Matrix Metalloprotease-3 (MMP-3)

[25] = biological target: Tyrosine-protein phosphatase non-receptor type 1 (Homo sapiens, UniProt P18031)
Description: Dissociation constant for Protein-tyrosine phosphatase 1B

Neuraminidase (Influenza A virus (A/Puerto Rico/8/1934(H1N1)), UniProt P03468), sequence (P03468 whole entry): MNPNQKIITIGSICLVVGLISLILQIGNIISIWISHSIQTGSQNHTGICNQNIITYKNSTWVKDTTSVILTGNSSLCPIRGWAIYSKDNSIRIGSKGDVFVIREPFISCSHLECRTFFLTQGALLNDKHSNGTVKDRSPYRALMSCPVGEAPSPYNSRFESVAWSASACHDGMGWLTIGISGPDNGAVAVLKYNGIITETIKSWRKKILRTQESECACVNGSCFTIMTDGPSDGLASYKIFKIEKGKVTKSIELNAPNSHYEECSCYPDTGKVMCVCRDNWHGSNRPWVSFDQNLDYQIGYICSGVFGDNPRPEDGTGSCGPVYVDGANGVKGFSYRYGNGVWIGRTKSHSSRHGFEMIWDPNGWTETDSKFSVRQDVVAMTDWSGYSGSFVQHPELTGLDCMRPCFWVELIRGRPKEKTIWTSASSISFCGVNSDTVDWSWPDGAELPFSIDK
Acetylcholinesterase (Rattus norvegicus, UniProt P37136), sequence (P37136 whole entry): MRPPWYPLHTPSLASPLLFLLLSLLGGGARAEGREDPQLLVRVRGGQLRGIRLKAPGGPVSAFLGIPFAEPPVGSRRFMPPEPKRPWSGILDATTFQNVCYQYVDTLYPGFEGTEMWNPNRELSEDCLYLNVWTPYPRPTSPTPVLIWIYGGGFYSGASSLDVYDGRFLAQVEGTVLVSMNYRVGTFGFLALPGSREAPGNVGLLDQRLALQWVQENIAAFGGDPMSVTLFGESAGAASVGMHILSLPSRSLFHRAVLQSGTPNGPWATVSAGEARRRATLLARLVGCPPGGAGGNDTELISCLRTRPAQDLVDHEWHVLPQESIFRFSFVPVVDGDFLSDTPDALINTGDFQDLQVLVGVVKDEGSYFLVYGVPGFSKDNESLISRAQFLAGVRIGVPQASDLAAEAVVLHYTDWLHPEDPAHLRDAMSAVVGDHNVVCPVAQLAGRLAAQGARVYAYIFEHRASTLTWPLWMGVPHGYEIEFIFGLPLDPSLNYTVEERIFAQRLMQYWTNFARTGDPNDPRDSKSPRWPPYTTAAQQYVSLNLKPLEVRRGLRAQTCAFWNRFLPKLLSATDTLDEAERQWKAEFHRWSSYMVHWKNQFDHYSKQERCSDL
Description for Carbonic anhydrase: Inhibitory concentration against carbonic anhydrase

SMILES: COC(=O)[C@@H]1CCCCN1C(=O)C(=O)c1cc(OC)c(OC)c(OC)c1
- Kd [1]: 2 µM

SMILES: c1ccc(NCCCCCCCNc2c3c(nc4ccccc24)CCCC3)cc1
- IC50 (Acetylcholinesterase [2]): 0.39 µM

SMILES: CC(=O)N[C@H]1[C@H](N)C=C(C(=O)O)C[C@@H]1N
- IC50 [3]: 31 µM

SMILES: O=C(Nc1cccc(C(F)(F)F)c1)c1csc(-c2ccncc2)n1
- Ki [4]: 13 µM

SMILES: NS(=O)(=O)c1ccc(CSCc2ccc(C(=O)O)cc2)cc1
- IC50 (Carbonic anhydrase): 0.084 µM

SMILES: CC(=O)N[C@@H]1[C@@H](N)CC(C(=O)O)=C[C@H]1NCCCc1ccccc1
- IC50 [3]: 1.64 µM

SMILES: N=C(N)c1ccc2cccc(Nc3ncccn3)c2c1
- Bioavailabiility [5]: Not orally available

SMILES: NC(=O)CSCc1ccc(S(N)(=O)=O)cc1
- IC50 (Carbonic anhydrase): 0.77 µM

SMILES: CC(C)C[C@@H](NC(=N)N)C(=O)NCC(=O)N1CCC(c2cc(-c3ccc(OCc4ccc(C(=O)O)o4)c(Cl)c3Cl)nn2C)CC1
- IC50 [6]: 0.06 µM

SMILES: NCc1nc2ccc(NCc3ccccc3OCc3ccccc3)cc2[nH]1
- IC50 [7]: 13 µM

SMILES: CCC(CC)N[C@@H]1C=C(C(=O)O)C[C@H](N)[C@H]1NC(C)=O
- IC50 [3]: 0.085 µM

SMILES: O=C1NC(=O)[C@@]2(N1)O[C@H](COP(=O)(O)O)[C@@H](O)[C@H]2O [PHOSPHOHYDANTOCIDIN]
- IC50 [8]: 0.675 µM

SMILES: CSc1nc(N)nc(N)n1
- Kd [9]: 1000 µM

SMILES: NC(N)=Nc1nc(-c2ccc(CNc3cc4ccccc4[nH]3)s2)cs1
- Ki (Adenosine deaminase): 1.2 µM

SMILES: CN(C)C(=O)[C@H](O)[C@H](Cc1ccccc1)NC(=O)c1cc2cc(Cl)ccc2[nH]1
- IC50 [10]: 0.13 µM

SMILES: COCCNC(=O)c1cc2cc(Cl)ccc2[nH]1
- IC50 [10]: 12.5 µM

SMILES: Nc1ccc2cccc(O)c2n1
- Ki [11]: 56 µM

SMILES: CN(C)CCC=C(c1ccc(Cl)cc1)c1ccc(Cl)cc1
- IC50 (Bcl-2-like protein 1): 180 µM

SMILES: CN(C)CC/C=C(\c1ccc(Cl)cc1)c1ccc(CCCc2ccc(/C(=C\CCN(C)C)c3ccc(Cl)cc3)cc2)cc1
- IC50 (Bcl-2-like protein 1): 10 µM

SMILES: CC[N+](C)(CC)CCC[n+]1c(-c2ccccc2)c2cc(N)ccc2c2ccc(N)cc21 [PROPIDIUM]
- Kd (Acetylcholinesterase [12]): 1.1 µM

SMILES: O=C(O)CCNC(=O)[C@H]1CCCN1S(=O)(=O)c1ccc(C(=O)N[C@@H](CCC(=O)O)C(=O)O)cc1
- Ki (Thymidylate synthase [13]): 0.33 µM

SMILES: O=C(O)CC[C@H](NC(=O)c1ccc(S(=O)(=O)N2CCC[C@@H]2C(=O)O)cc1)C(=O)O
- Ki (Thymidylate synthase [13]): 24 µM

SMILES: NCC[C@@H](NC(=O)c1ccc(-c2cccc(NC(=O)c3ccc4nc(O)c(O)nc4c3)c2)o1)C(=O)N1CCNCC1
- Kd (Nucleic Acid): 6.5 µM

SMILES: Cc1cc(C)c(N(Cc2ccccc2)S(=O)(=O)c2ccc(OCCNC(=O)c3cc4ccccc4o3)cc2)c(C(=O)NO)c1
- IC50 (Interstitial collagenase): > 10 µM

SMILES: C1=CC2N=C3CCCCC3=C(NCCCCCCCNc3c4c(nc5ccccc35)CCCC4)C2C=C1 (stereo not drawn)
- IC50 (Acetylcholinesterase [2]): 0.0004 µM

SMILES: O=C(NCCOCCOCCNC(=O)c1cc2cc(Cl)ccc2[nH]1)c1cc2cc(Cl)ccc2[nH]1
- IC50 [10]: 0.006 µM

SMILES: O=C(Nc1ccccc1)c1c(Nc2ccccc2)[nH]c(=O)[nH]c1=O
- Ki [4]: 0.72 µM

SMILES: Oc1ccc(-c2ccccc2)cc1
- Kd (Stromelysin-1 [14]): 280 µM

SMILES: CC(=O)N1CCN(C(=O)/C=C/c2cccc([N+](=O)[O-])c2)CC1
- IC50 [15]: 80 µM

SMILES: CC(=O)N1CCN(C(=O)/C=C/c2ccc(Sc3ccc4[nH]ccc4c3)c(Cl)c2)CC1
- half-life [16]: 4.7 h

SMILES: CCn1c2ccccc2c2cc(/C=N\OCCO/N=C/c3ccc(O)c(O)c3)ccc21
- IC50 [17]: 0.064 µM

SMILES: O=C(NCCCCN1CCOCC1)c1cc2ccccc2o1
- IC50 (Collagenase 3): 10 µM
- IC50 (Interstitial collagenase): > 10 µM

SMILES: O=C(O)CCCc1ccc(Oc2ccccc2)cc1
- Kd (Human papillomavirus [18]): 1900 µM

SMILES: O=C(Nc1ccccc1O)c1ccc(O)cc1
- Kd [1]: 800 µM

SMILES: O=C(O)c1ccc2nc(O)c(O)nc2c1
- Kd (Nucleic Acid): > 100 µM

SMILES: Nc1nc(NC2Cc3ccccc3C2)nc(N2CCCCC2)n1
- Ki [19]: 8 µM

SMILES: NCC[C@@H](NC(=O)c1ccco1)C(=O)N1CCNCC1
- Kd (Nucleic Acid): > 100 µM

SMILES: CO/N=C/c1ccc(O)c(O)c1
- IC50 [17]: 41 µM

SMILES: NS(=O)(=O)c1ccc(N/N=C2\C(=O)Nc3ccc(Cl)cc32)cc1 [GW280670X]
- IC50 [20]: 0.03 µM

SMILES: CCCNC(=O)c1ccc2nc(O)c(O)nc2c1
- Kd (Nucleic Acid): > 100 µM

SMILES: O=CN(O)[C@@H](CCCN1C(=O)N[C@@]2(O[C@H](COP(=O)(O)O)[C@@H](O)[C@H]2O)C1=O)C(=O)O
- IC50 [8]: 0.043 µM

SMILES: O=C(O)/C=C/C=C/c1ccc(Oc2ccccc2)cc1
- IC50 (Human papillomavirus [21]): 75 µM
- Kd (Human papillomavirus [18]): 350 µM

SMILES: CNS(=O)(=O)c1ccc(O)c(C(=O)O)c1
- Ki (Caspase-3): > 1000 µM

SMILES: COc1ccc(-c2cc(C3CCN(C(=O)CNC(=O)[C@@H](CC(C)C)N=C(N)N)CC3)n(C)n2)c(Cl)c1Cl
- IC50 [6]: 3 µM

SMILES: N#CCc1cccc(-c2ccc(O)cc2)c1
- Kd (Stromelysin-1 [14]): 20 µM

SMILES: COc1cc(C(=O)C(=O)N2CCCC[C@H]2C(=O)OCCCOc2ccc(C(=O)Nc3ccc(O)cc3)cc2)cc(OC)c1OC
- Kd [1]: 0.019 µM

SMILES: O=C(O)/C=C/C=C/c1cccc(Oc2cc(Cl)cc(Cl)c2)c1
- IC50 (Human papillomavirus [21]): 10 µM

SMILES: Cc1ccc(S(=O)(=O)N2CCC[C@@H]2C(=O)O)cc1
- Ki (Thymidylate synthase [22]): 1100 µM

SMILES: Nc1ccc2cccc(Nc3ncccn3)c2n1
- bioavailability [23]: 38%

SMILES: CONC(=O)c1c(OCCOc2ccc(-c3ccc(C#N)cc3)cc2)ccc2ccccc12
- IC50 (Stromelysin-1 [24]): 0.34 µM

SMILES: O=CN(O)CC(=O)O [HADACIDIN]
- IC50 [8]: 3.5 µM

SMILES: O=C(O)c1cc2ccccc2s1
- Kd [25]: > 1000 µM

SMILES: CCn1c2ccccc2c2cc(/C=N\OC)ccc21
- IC50 [17]: 40 µM

SMILES: O=C(O)c1ccc(-c2cc(Cl)cc(Cl)c2)cc1
- IC50 (Human papillomavirus [21]): 150 µM
- Kd (Human papillomavirus [18]): 60 µM

SMILES: O=C(Nc1ccc(O)cc1)c1ccc(O)cc1
- Kd [1]: 100 µM
